Literature values, collected in patent publication US10744098B2, “Spray-dried solid-in-oil-in-water dispersions for inhalation of active pharmaceutical ingredients” (Novartis AG, priority 2014, dated 2020).

Molecular target: β2-adrenoceptor (Homo sapiens, UniProt P07550)
Sequence (P07550 whole entry, species assumed): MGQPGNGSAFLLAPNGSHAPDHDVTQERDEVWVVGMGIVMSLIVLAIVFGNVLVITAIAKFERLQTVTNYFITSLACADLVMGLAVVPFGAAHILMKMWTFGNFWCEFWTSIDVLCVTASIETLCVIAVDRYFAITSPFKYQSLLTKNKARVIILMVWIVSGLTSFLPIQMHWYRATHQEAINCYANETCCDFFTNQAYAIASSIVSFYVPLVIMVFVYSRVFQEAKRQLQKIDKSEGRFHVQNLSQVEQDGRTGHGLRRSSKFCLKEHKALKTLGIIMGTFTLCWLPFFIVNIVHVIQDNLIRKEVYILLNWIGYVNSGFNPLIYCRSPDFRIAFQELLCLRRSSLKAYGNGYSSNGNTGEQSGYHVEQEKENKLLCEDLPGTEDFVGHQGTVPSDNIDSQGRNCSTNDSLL

- duration of action: over 24 hours
- onset of action: about 10 minutes
SMILES: CCc1cc2c(cc1CC)CC(NC[C@H](O)c1ccc(O)c3[nH]c(=O)ccc13)C2 [indacaterol, (R)-5-[2-(5,6-diethyl-indan-2-ylamino)-1-hydroxyethyl]-8-hydroxy-1H-quinolin-2-one]
